Results from US20050256134A1, “Use of creatine analogues and creatine kinase modulators for the prevention and treatment of glucose metabolic disorders” (AVICENA GROUP, INC., priority 1995, published 2005).

How the values were obtained:
[1] = test system: Zuker lean littermates (ZDF +/?); test: Creatine compounds as 1% of the diet, glucose and insulin levels in lean littermates; format: in vivo, rat
Text: (§1) This preliminary study was initiated to gain insight into the potential regulation of glucose levels by creatine compounds in ZDF rats, a widely studied rodent model of NIDDM (Peterson, Lessons from Animal Diabetes, 1994, Pages 225-230). Male Zuker diabetic fatty (ZDF-fa/fa) rats and their lean Zuker littermates (ZDF +/?) were from Genetic Models, Inc., Indianapolis, Ind. […] Hyperglycemia is initially manifested at about 7 weeks of age and all obese rats are fully diabetic by 12 weeks of age (fed blood glucose of greater than 500 mg %). This level of hyperglycemia increases slightly for several weeks thereafter. Between 7 and 10 weeks, blood insulin levels are high but these subsequently drop as the pancreatic beta cells cease to respond to the glucose stimulus. The lean (ZDF/Gmi) rats are the control counterparts of the diabetic animals. These rats have the same genetics as the obese animals except for the obesity trait. No phenotypic differences have been observed between these rats and other typical lean control rats.
(§2) Male Zuker diabetic fatty (ZDF-fa/fa) rats and Zuker lean littermates (ZDF +/?) were 12 weeks old when dosing with creatine compounds was initiated. The ZDF-fa/fa rats were completely diabetic. The littermates were the same age. […] Animals were bled regularly throughout the experiment and glucose and insulin levels were determined using standard procedures (Linco RI-13K). […]

[2] = test system: Male Zuker diabetic fatty (ZDF-fa/fa) rats; test: Creatine compounds as 1% of the diet, glucose and insulin levels in diabetic rats; format: in vivo, rat
Text: as §1, §2

creatine kinase = settings: forward reaction, in vitro and in vivo; cited from earlier work

NC1=NCCN1CC(=O)O [cyclocreatine]
drop in insulin levels ([1]; lean animals): over 50%
drop in level of glucose ([1]; lean rats, vs Day 0, n=3): about 15%
drop in glucose levels ([2]; obese diabetic animals, vs Day 0, n=3): ~20%
effect on insulin levels ([2]; obese fatty animals): minimally affected
phosphorylation by creatine kinase (creatine kinase): phosphorylated efficiently
